Results: patent US12502369B2, “Methods of cancer treatment” (K-GEN, INC., priority 2015, dated 2025)
“Also recorded” adds a separate entry of the source.

Legend:
[1] = test system: A549; assay: Proliferation assay, PKC inhibitor in combination with PKC activators, A549; type: cell-based; settings: for effect on PKC activator-mediated proliferation inhibition: K101A with Go6976 (0.1 or 0.3 μM), GF109203X (0.3 or 1 μM), Enzastaurin (0.3 or 1 μM); for inhibition of K101A anti-proliferative effects: higher concentrations of inhibitor
Description: To assess if activation of different classes of PKC is required for anti-proliferation effect of PKC activators, Sotrastaurin, a PKC inhibitor targeting both conventional and novel classes of PKC, was tested in combination with PKC activators in the proliferation assays. Proliferation assay in lung cancer cell line A549 (FIG. 15) and in pancreatic cell line MiaPaCa-2 (FIG. 16) was performed as described in Example 1. […] Then, K101A or K102 was tested in 8- or 9-point titrations in the presence of DMSO or Sotrastaurin (0.1 μM or 1 μM). […] Thus, PKC activator-mediated anti-proliferation effects are dependent on activation of PKC isoforms from conventional, or novel, or both classes of PKCs.
To assess if PKC activation is required for anti-proliferation effect of PKC activators in cancer cell lines that are sensitive to these activators, a pan-PKC inhibitor Go6983, targeting classes of PKCs (conventional, novel, atypical, and PKCμ), was tested in combination with PKC activators in the proliferation assays. Proliferation assay in lung cancer cell line A549 (FIG. 17) and in pancreatic cell line MiaPaCa-2 (FIG. 18) was performed as described in Example 1. […] Then, K101A or K102 was tested in 8- or 9-point titrations in the presence of DMSO or Go6983 (0.1 μM or 1 μM). […] Thus, PKC activation is required for anti-proliferation effect of PKC activators.
Proliferation assay was performed as described in Example 1. […] Thus, PKC activator-mediated anti-proliferation effects appear mainly dependent on activation of novel PKC isoforms.

[2] = test system: PKC isoforms and Erk1/2 in A549 cells; assay: PKC inhibitor effect on PKC activator-mediated phosphorylation of PKCs and Erk1/2, A549; type: cell-based; settings: 30 minutes; for K101A- or K102-induced phosphorylation of PKCμ at Ser916 or Ser744/748, PKCδ at Thr505, and Erk / phosphorylation of PKCδ at Tyr311 induced by PKC inhibitor: inhibitor pre-treatment 1 μM
Description: To assay if PKC inhibitors have any effects on the PKC activator-mediated phosphorylation of PKCs, A549 cells were pre-treated with DMSO, PKC inhibitors Go6983 (0.3 μM or 1 μM) or Sotrastaurin (0.3 μM or 1 μM) for 30 minutes before adding PKC activators K101A (1 μM) or K102 (0.1 μM) for another 30 minutes (FIG. 22). Cell lysis, protein quantitation, and Western blot analysis were performed as described above in Example 2 and 4. […] Phosphorylation of PKCα/β at Thr638/641 was not affected by the inhibitors (FIG. 22A). […] These PKC inhibitor studies indicate that blocking phosphorylation and activation of various isoforms of PKC is correlated with inhibition of the anti-proliferative effects of the PKC activators.
Cell lysis, protein quantitation, and Western blot analysis were performed as described above in Example 2 and 4. […] These PKC inhibitor studies also indicate that phosphorylation and activation of novel PKC isoforms and PKCμ is required for the anti-proliferative effects of the PKC activators whereas phosphorylation of PKCδ at Tyr311 is correlated with inhibition of the anti-proliferative effects of PKC activators.

[3] = test system: Mino cells; assay: Proliferation assay, PKC inhibitors in combination with PKC activators, Mino; type: cell-based; settings: Sotrastaurin 0.3/1 μM, Go6983 0.1/1 μM, Go6976 0.3/1 μM, Enzastaurin 1/3 μM
Description: PKC inhibitor studies were performed as described in Example 8, 9, and 10. […] Thus, PKC activator-mediated anti-proliferation effects may be dependent on activation of PKC isoforms from the novel PKC class.

[4] = test system: Namalwa cells; assay: Proliferation assay, PKC inhibitors in combination with PKC activators, Namalwa; type: cell-based; settings: Sotrastaurin 0.3/1 μM, Go6983 0.1/1 μM, Go6976 0.3/1 μM, Enzastaurin at very high concentration of 10 μM
Description: PKC inhibitor studies were performed as described in Example 15. […] Thus, PKC activator-mediated anti-proliferation effects may be dependent on activation of novel PKC isoforms.

[5] = test system: PKC isoforms and Erk1/2 in Mino and Namalwa cells; assay: PKC inhibitor effect on K101A-mediated phosphorylation of PKCs and Erk1/2 in Mino and Namalwa cells; type: cell-based; settings: for phosphorylation of PKCδ at Tyr311 induced by PKC inhibitor: inhibitor pre-treatment 30 minutes; for K101A-induced phosphorylation of PKCμ at Ser916 or Ser744/748, PKCδ at Thr505, and Erk: inhibitor pre-treatment 30 minutes (Go6983, Sotrastaurin 1 μM)
Description: Cell lysis, protein quantitation, and Western blot analysis were performed as described above in Example 2 and 4. […] Again, these PKC inhibitor studies indicate the anti-proliferative effects of the PKC activators appear to be positively associated with phosphorylation and activation of novel PKC isoforms and PKCγ, and negatively associated with the phosphorylation of PKCδ at Tyr311.

[6] = biological target: PKCα & β; settings: cited from earlier work
[7] = test system: MiaPaCa-2; assay: Proliferation assay, PKC inhibitor in combination with PKC activators, MiaPaCa-2; type: cell-based; settings: Sotrastaurin 1 μM with K101A or K102
[8] = biological target: PKCα, β, & γ; settings: cited from earlier work
[9] = biological target: PKCε (Homo sapiens, UniProt Q02156); settings: cited from earlier work
[10] = inhibitor pre-treatment 0.3 μM or 1 μM

PKCε, sequence (Q02156 whole entry): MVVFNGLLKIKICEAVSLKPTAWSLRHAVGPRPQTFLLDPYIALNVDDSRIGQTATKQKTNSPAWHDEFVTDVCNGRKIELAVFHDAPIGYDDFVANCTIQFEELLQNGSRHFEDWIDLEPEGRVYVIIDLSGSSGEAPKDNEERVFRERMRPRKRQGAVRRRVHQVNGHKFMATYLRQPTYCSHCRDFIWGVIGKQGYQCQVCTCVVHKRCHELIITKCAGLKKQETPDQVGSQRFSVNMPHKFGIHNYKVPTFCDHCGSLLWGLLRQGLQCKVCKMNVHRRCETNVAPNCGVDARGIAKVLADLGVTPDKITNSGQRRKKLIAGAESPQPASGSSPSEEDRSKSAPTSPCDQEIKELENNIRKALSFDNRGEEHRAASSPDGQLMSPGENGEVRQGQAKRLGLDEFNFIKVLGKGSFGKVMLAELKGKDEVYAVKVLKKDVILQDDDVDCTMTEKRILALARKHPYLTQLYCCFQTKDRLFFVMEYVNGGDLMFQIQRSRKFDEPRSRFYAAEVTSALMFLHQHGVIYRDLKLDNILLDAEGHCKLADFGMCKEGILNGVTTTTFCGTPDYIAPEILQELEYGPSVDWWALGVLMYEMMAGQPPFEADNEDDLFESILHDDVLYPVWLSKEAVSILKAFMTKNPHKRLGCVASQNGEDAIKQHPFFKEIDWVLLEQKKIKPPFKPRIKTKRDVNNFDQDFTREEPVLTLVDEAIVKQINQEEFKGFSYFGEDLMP

Structure (SMILES) | effect on PKC activator-mediated proliferation inhibition [1] | K101A- or K102-induced phosphorylation of PKCμ at Ser916 or Ser744/748, PKCδ at Thr505, and Erk [2] | phosphorylation of PKCδ at Tyr311 induced by PKC inhibitor [2] | effect on PKC activator-mediated anti-proliferation effects [3] | effect on PKC activator-mediated anti-proliferation effects [4] | phosphorylation of PKCδ at Tyr311 induced by PKC inhibitor [5] | K101A-induced phosphorylation of PKCμ at Ser916 or Ser744/748, PKCδ at Thr505, and Erk [5] | Ki [6] [nM] | effect on PKC activator-mediated anti-proliferation effects ([1]; Sotrastaurin 1 μM with K101A or K102) | effect on PKC activator-mediated anti-proliferation effects [7] | K101A- and K102-induced phosphorylation of Erk1/2 [2, 10] | K101A- or K102-induced phosphorylation, P-PKCμ (Ser916), P-PKCμ (Ser744/748), P-PKCδ (Thr505) [2, 10] | Phosphorylation of PKCα/β at Thr638/641 [2, 10] | inhibition of K101A anti-proliferative effects [1] | Ki [8] [nM] | Ki [9] [nM]
Cn1c2ccccc2c2c3c(c4c5ccccc5n(CCC#N)c4c21)CNC3=O [Go6976] | minimal effects; also recorded: no inhibition | minimal effects | induced no phosphorylation of PKCδ at Tyr311 | did not block | did not block | did not induce phosphorylation | little effect | 2.3 to 6.2 |  |  |  |  |  |  |  | 
CN1CCN(c2nc(C3=C(c4c[nH]c5ccccc45)C(=O)NC3=O)c3ccccc3n2)CC1 [Sotrastaurin] |  | completely abolished | induced phosphorylation of PKCδ at Tyr311 | dose-dependently blocked | dose-dependently blocked | induced robust phosphorylation | completely abolished |  | completely abolished | completely abolished | blocked dose-dependently | blocked in a dose-dependent manner | not affected |  |  | 
CN(C)CCCn1cc(C2=C(c3c[nH]c4ccccc34)C(=O)NC2=O)c2ccccc21 [GF109203X] | minimal effects; also recorded: weak inhibition | minimal effects | induced phosphorylation of PKCδ at Tyr311 partially |  |  |  |  |  |  |  |  |  |  | Slight inhibition | ~20 | 
Cn1cc(C2=C(c3cn(C4CCN(Cc5ccccn5)CC4)c4ccccc34)C(=O)NC2=O)c2ccccc21 [Enzastaurin] | minimal effects; also recorded: weak inhibition | minimal effects | induced phosphorylation of PKCδ at Tyr311 partially | partially blocked | marginally blocked | induced moderate phosphorylation |  |  |  |  |  |  |  | Slight inhibition |  | 110
